Laboratory results from PubChem BioAssay (NCI).
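How tested: cells in 96-well plates exposed to compound for 48 hours at five concentrations. GI50: concentration for 50% inhibition of growth. The concentration for full growth arrest is given as TGI.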

Experiments:
Assay in all cases: DTP human tumour cell line panel, 48 h
[1] = test system: SNB-75 CNS
[2] = test system: EKVX NSCLC
[3] = test system: BT-549 breast
[4] = test system: HOP-62 NSCLC
[5] = test system: K-562 leukemia
[6] = test system: HS 578T breast
[7] = test system: 786-0 renal
[8] = test system: SW-620 colon
[9] = test system: OVCAR-4 ovarian
[10] = test system: CCRF-CEM leukemia
[11] = test system: SK-MEL-2 melanoma
[12] = test system: HCT-116 colon
[13] = test system: OVCAR-5 ovarian
[14] = test system: ACHN renal
[15] = test system: A498 renal
[16] = test system: CAKI-1 renal
[17] = test system: OVCAR-8 ovarian
[18] = test system: SF-268 CNS
[19] = test system: NCI-H226 lung
[20] = test system: SNB-19 CNS
[21] = test system: RXF 393 renal
[22] = test system: PC-3 prostate
[23] = test system: HOP-92 NSCLC
[24] = test system: UACC-257 melanoma
[25] = test system: T-47D breast
[26] = test system: NCI-H460 lung
[27] = test system: COLO 205 colon
[28] = test system: SN12C renal
[29] = test system: NCI-H23 lung
[30] = test system: HL-60(TB) leukemia
[31] = test system: MCF7 breast
[32] = test system: KM12 colon
[33] = test system: HT29 colon
[34] = test system: RPMI-8226 leukemia
[35] = test system: UACC-62 melanoma
[36] = test system: SR leukemia
[37] = test system: SF-295 CNS
[38] = test system: DU-145 prostate
[39] = test system: LOX IMVI melanoma
[40] = test system: A549 NSCLC
[41] = test system: MOLT-4 leukemia
[42] = test system: TK-10 renal
[43] = test system: NCI/ADR-RES ovarian
[44] = test system: NCI-H522 lung
[45] = test system: SK-MEL-28 melanoma
[46] = test system: UO-31 renal
[47] = test system: MDA-MB-231 breast
[48] = test system: SK-OV-3 ovarian
[49] = test system: HCT-15 colon
[50] = test system: SK-MEL-5 melanoma
[51] = test system: HCC-2998 colon
[52] = test system: OVCAR-3 ovarian
[53] = test system: IGROV1 ovarian
[54] = test system: M14 melanoma
[55] = test system: MDA-MB-435
[56] = test system: SF-539 CNS

SMILES: C=C(CN1C(=O)CN(C)C1=O)c1ccc(C(=O)Nc2ccccc2N)cc1
- GI50 [1]: 5.87 µM
- TGI [1]: 57.6 µM
- GI50 [2]: 82.3 µM
- TGI [2]: > 100 µM
- GI50 [3]: 61.8 µM
- TGI [3]: > 100 µM
- GI50 [4]: 17.6 µM
- TGI [4]: > 100 µM
- GI50 [5]: 5.9 µM
- TGI [5]: 74.5 µM
- GI50 [6]: 22.5 µM
- TGI [6]: > 100 µM
- GI50 [7]: 30.1 µM
- TGI [7]: > 100 µM
- GI50 [8]: 19.4 µM
- TGI [8]: > 100 µM
- GI50 [9]: 4.65 µM
- TGI [9]: 35.8 µM
- GI50 [10]: 11.6 µM
- TGI [10]: 87.3 µM
- GI50 [11]: 30.9 µM
- TGI [11]: > 100 µM
- GI50 [12]: 6.7 µM
- TGI [12]: 36.3 µM
- GI50 [13]: 3.56 µM
- TGI [13]: 85.2 µM
- GI50 [14]: 20.9 µM
- TGI [14]: > 100 µM
- GI50 [15]: 4.3 µM
- TGI [15]: 31.2 µM
- GI50 [16]: 18.6 µM
- TGI [16]: 58.7 µM
- GI50 [17]: 6.78 µM
- TGI [17]: > 100 µM
- GI50 [18]: 11.5 µM
- TGI [18]: > 100 µM
- GI50 [19]: 23.6 µM
- TGI [19]: > 100 µM
- GI50 [20]: 38.5 µM
- TGI [20]: > 100 µM
- GI50 [21]: 20.1 µM
- TGI [21]: 67.2 µM
- GI50 [22]: 12 µM
- TGI [22]: > 100 µM
- GI50 [23]: 26.5 µM
- TGI [23]: > 100 µM
- GI50 [24]: 5.89 µM
- TGI [24]: 30.4 µM
- GI50 [25]: 2.55 µM
- TGI [25]: 22.2 µM
- GI50 [26]: 15.9 µM
- TGI [26]: > 100 µM
- GI50 [27]: 9.24 µM
- TGI [27]: 44.8 µM
- GI50 [28]: 14.1 µM
- TGI [28]: 92.4 µM
- GI50 [29]: 26.8 µM
- TGI [29]: > 100 µM
- GI50 [30]: 4.93 µM
- TGI [30]: 61.1 µM
- GI50 [31]: 12.7 µM
- TGI [31]: > 100 µM
- GI50 [32]: 28.6 µM
- TGI [32]: > 100 µM
- GI50 [33]: 10.9 µM
- TGI [33]: 41.5 µM
- GI50 [34]: 2.32 µM
- TGI [34]: 14.8 µM
- GI50 [35]: 9.31 µM
- TGI [35]: 32.3 µM
- GI50 [36]: 1.41 µM
- TGI [36]: 10.7 µM
- GI50 [37]: 19.5 µM
- TGI [37]: > 100 µM
- GI50 [38]: 25.9 µM
- TGI [38]: > 100 µM
- GI50 [39]: 18.2 µM
- TGI [39]: 69.9 µM
- GI50 [40]: 25.4 µM
- TGI [40]: > 100 µM
- GI50 [41]: 7.29 µM
- TGI [41]: 63.3 µM
- GI50 [42]: 3.44 µM
- TGI [42]: 31.5 µM
- GI50 [43]: 12.5 µM
- TGI [43]: > 100 µM
- GI50 [44]: 4.04 µM
- TGI [44]: 36.2 µM
- GI50 [45]: 15.9 µM
- TGI [45]: 54.8 µM
- GI50 [46]: 11.8 µM
- TGI [46]: > 100 µM
- GI50 [47]: 36.3 µM
- TGI [47]: > 100 µM
- GI50 [48]: 1.64 µM
- TGI [48]: 9.96 µM
- GI50 [49]: 40.9 µM
- TGI [49]: > 100 µM
- GI50 [50]: 12.2 µM
- TGI [50]: 32.8 µM
- GI50 [51]: 22 µM
- TGI [51]: 54.3 µM
- GI50 [52]: 24.8 µM
- TGI [52]: > 100 µM
- GI50 [53]: 12.3 µM
- TGI [53]: > 100 µM
- GI50 [54]: 29.8 µM
- TGI [54]: > 100 µM
- GI50 [55]: 11.3 µM
- TGI [55]: 54.1 µM
- GI50 [56]: 36.2 µM
- TGI [56]: > 100 µM

SMILES: Cc1cc2c(cc1C)[n+](Cc1ccc3ccccc3c1)cn2Cc1ccc2ccccc2c1
- GI50 [13]: 1.13 µM
- TGI [13]: 2.43 µM
- GI50 [14]: 1.65 µM
- TGI [14]: 3.08 µM
- GI50 [35]: 0.459 µM
- TGI [35]: 1.79 µM
- GI50 [43]: 6.6 µM
- TGI [43]: 64.4 µM
- GI50 [48]: 1.5 µM
- TGI [48]: 2.9 µM
- GI50 [50]: 1.05 µM
- TGI [50]: 2.23 µM
